The target in series [1] is T1, Beta-lactamase NDM-1 (Escherichia coli, UniProt E5KIY2).
Description: Non-competitive inhibition of NDM1 in Escherichia coli BL21 (DE3) using MEPM substrate incubated for 15 mins by UV spectroscopy based L-B plot
Series [2] concerns Proteus mirabilis. Nature of the series: (§1) Inhibition of NDM1 in Proteus mirabilis clinical isolates assessed as potentiation of meropenem-induced antibacterial activity by measuring meropenem MIC at 32 ug/ml incubated for 16 to 18 hrs by broth microdilution method. Background: Dilution methods test growth across graded concentrations, often in twofold steps.
Series [3] deals with Beta-lactamase NDM-1 (Escherichia coli) (UniProt E5KIY2).
Description: Inhibition of NDM1 in Escherichia coli clinical isolates assessed as potentiation of meropenem-induced antibacterial activity by measuring meropenem MIC at 32 ug/ml incubated for 16 to 18 hrs by broth microdilution method (Rvb = 80 ug/ml)
Series [4] has the same target. The source holds these as a separate data set.
In series [5] the test system is Escherichia coli. The experiment in a line: Effect on cell growth of Escherichia coli expressing NDM1 assessed as cell growth level. Format: organism-based.
For series [6], the system named is Proteus mirabilis. The description is as §1. The source holds these as a separate data set.
The target in series [7] is Metallo-beta-lactamase type 2 (Klebsiella pneumoniae) (UniProt C7C422).
For series [8], the target named is Beta-lactamase NDM-1 (Escherichia coli) (UniProt E5KIY2). This is another data set of the same source.
Description: Inhibition of NDM1 in Escherichia coli clinical isolates assessed as potentiation of meropenem-induced antibacterial activity by measuring meropenem MIC at 32 ug/ml incubated for 16 to 18 hrs by broth microdilution method (Rvb = 320 ug/ml)
Series [9] relates to Citrobacter freundii. Nature of the series: Inhibition of NDM1 in Citrobacter freundii clinical isolates assessed as potentiation of meropenem-induced antibacterial activity by measuring meropenem MIC at 32 ug/ml incubated for 16 to 18 hrs by broth microdilution method.
Series [10] deals with Proteus mirabilis. The series is described as §1. The source holds these as a separate data set.
In series [11] the test system is Escherichia coli. The experiment in a line: Effect on cell growth of Escherichia coli expressing NDM1 incubated for 16 to 18 hrs by CLSI protocol based method. It is filed as organism-based.
The target in series [12] is Metallo-beta-lactamase type 2 (Klebsiella pneumoniae) (UniProt C7C422). The source holds these as a separate data set.
Description: Inhibition of NDM1 in Klebsiella pneumoniae clinical isolates assessed as potentiation of meropenem-induced antibacterial activity by measuring meropenem MIC at 32 ug/ml incubated for 16 to 18 hrs by broth microdilution method (Rvb = 80 ug/ml)
Series [13] has as its target Beta-lactamase NDM-1 (Escherichia coli) (UniProt E5KIY2). The experiment in a line: Inhibition of NDM1 in Escherichia coli assessed as potentiation of 0.125 ug/ml meropenem-induced antibacterial activity by measuring bacterial count at 32 ug/ml incubated for 3 hrs by time-dependent killing assay (reference value: […]).
Series [14] has as its target T1, Beta-lactamase NDM-1. The source holds these as a separate data set.
Description: Inhibition of NDM1 in Escherichia coli BL21 (DE3) using MEPM substrate incubated for 15 mins by UV spectroscopy
For series [15], the target named is Beta-lactamase NDM-1 (Escherichia coli) (UniProt E5KIY2). This is another data set of the same source.
Description: Inhibition of NDM1 in Escherichia coli assessed as potentiation of meropenem-induced antibacterial activity by measuring meropenem inhibition zone at 0.1mol/L incubated for 16 to 18 hrs by CLSI protocol based disc diffusion method
The subject of series [16] is HeLa. Nature of the series: Cytotoxicity in human HeLa cells assessed as inhibition of cell growth at 0.1% incubated for 24 hrs by calcein AM and propidium iodide staining based fluorescence microscopy. Format: functional.
The subject of series [17] is HeLa. The experiment in a line: Cytotoxicity in human HeLa cells assessed as inhibition of cell growth at 64 ug/ml incubated for 24 hrs by calcein AM and propidium iodide staining based fluorescence microscopy.
The test system of a further series is Erythrocyte. Nature of the series: Hemolytic activity in sheep RBCs at 10000 ug/ml incubated for 1 hr. It is filed as ADME, cell-based, Ovis aries.
Series [18] relates to Escherichia coli. Nature of the series: Potentiation of meropenem-induced antibacterial activity in Escherichia coli expressing NDM1 assessed as meropenem inhibition zone incubated for 16 to 18 hrs by CLSI protocol based disc diffusion method (reference value: 10.76 mm). Format: functional.
Series [19] has as its system HeLa. Nature of the series: Cytotoxicity in human HeLa cells assessed as inhibition of cell growth at 128 ug/ml incubated for 24 hrs by calcein AM and propidium iodide staining based fluorescence microscopy.
The test system of series [20] is Proteus mirabilis. The conditions noted are these: 64 ug/ml.
Description: (§2) Inhibition of NDM1 in Proteus mirabilis clinical isolates assessed as potentiation of meropenem-induced antibacterial activity by measuring meropenem MIC at 64 ug/ml incubated for 16 to 18 hrs by broth microdilution method
In series [21] the test system is Citrobacter freundii. Particulars: 64 ug/ml.
Description: Inhibition of NDM1 in Citrobacter freundii clinical isolates assessed as potentiation of meropenem-induced antibacterial activity by measuring meropenem MIC at 64 ug/ml incubated for 16 to 18 hrs by broth microdilution method
The nature of series [22]: Cytotoxicity in human HeLa cells assessed as inhibition of cell growth at 1000 ug/ml incubated for 24 hrs by CCK8 assay. It is filed as cell-based. The conditions noted are these: read-out: GI. (Tetrazolium dyes change colour on reduction, which living cells bring about.)
Series [23] concerns Proteus mirabilis. Particulars: 64 ug/ml. This is another data set of the same source.
Description: as §2

SMILES strings stand for the structures. Converted amounts (≈) assume the structure as drawn. The source made the active and inactive calls. No cut-off for these calls is given here. A value given as a limit tells only on which side of the number the result lay.

For orientation: Ki means the equilibrium dissociation constant of an inhibitor or competing ligand from its target. By IC50 is commonly meant the midpoint of a concentration-inhibition curve. A lower IC50 goes with greater potency in that assay.

The compound `O=C(O)CN1CCN(CC(=O)O)CCN(CC(=O)O)CC1` came in with a Ki at Beta-lactamase NDM-1 [1] of 5110 nM. In addition, the MIC in the series with Proteus mirabilis [2] was 0.5 µg/mL; in [3], 0.125 µg/mL (≈ 0.412 µM); in series [4] it was under 0.03 µg/mL; in the series on Proteus mirabilis [6], 2 µg/mL; in [7], 1 µg/mL (≈ 3.3 µM); in series [8], 0.125 µg/mL (≈ 0.412 µM). The MIC in the series with Citrobacter freundii [9] is 0.06 µg/mL; with Proteus mirabilis [10], 0.5 µg/mL; in the series with Escherichia coli [11], over 128 µg/mL; in series [12], 2 µg/mL (≈ 6.59 µM). Also, the Activity is 90% in the series with Escherichia coli [5] and 10000 to 1e+06 CFU/mL in series [13]. The concentration for half-maximal inhibition (IC50) on Beta-lactamase NDM-1 [14] worked out at 110 nM.

In series [15], `O=C(O)CN(CCN(CC(=O)O)CC(=O)O)CC(=O)O` gave an IZ of 21.7 mm.

Consider `CC(C)(C)CC(C)(C)c1ccc(OCCOCCOCCOCCOCCOCCOCCO)cc1`, for which the result with HeLa [16] was Active.

Regarding `S=C([S-])N1CCN(C(=S)[S-])CCN(C(=S)[S-])CC1.[Na+].[Na+].[Na+]`, the Activity entry with HeLa [17] is given as “Non-Toxic”; in the series with Erythrocyte it was “Non-Toxic”; in the series with HeLa [19], “Non-Toxic”; in the series on Escherichia coli [5], 90%. Also, in the series with Escherichia coli [18], the “inhibition zone (IZ)” value was found to be 15.9 mm. The MIC with Proteus mirabilis [2] is 4 µg/mL; against Proteus mirabilis [20], over 16 µg/mL; against Citrobacter freundii [21], 0.5 µg/mL; in the series with Proteus mirabilis [6] it was over 16 µg/mL; in the series with Citrobacter freundii [9], 4 µg/mL; against Escherichia coli [11], over 128 µg/mL. Moreover, the MIC against Proteus mirabilis [23] is 4 µg/mL. The inhibition at 24 h, 1000 ug/ml in series [22] is 20%.

Source of the values: ChEMBL document CHEMBL4177741, “NOTA analogue: A first dithiocarbamate inhibitor of metallo-β-lactamases” (Bioorg Med Chem Lett, 2018).
